Test results: article PMC8899516, “Structure-Activity Relationship Studies of 4-((4-(2-fluorophenyl)piperazin-1-yl)methyl)-6-imino-N-(naphthalen-2-yl)-1,3,5-triazin-2-amine (FPMINT) Analogues as Inhibitors of Human Equilibrative Nucleoside Transporters” (Frontiers in Pharmacology, 2022)

Legend:
ENT1 = experiment: Cell surface biotinylation and internalization assay; type: cell-based, human; details: 50 µM, 24 h or 48 h, PK15NTD cells
Description: (§1) To label all surface proteins, after washing with ice-cold PBS, PK15NTD/ENT1 and PK15NTD/ENT2 cells were incubated with sulfo-NHS-SS-biotin (300 μg/ml) for 30 min at 4°C to biotinylate cell surface proteins. The unbound biotin was washed away by PBS containing 0.1% BSA at 4°C. The biotinylated cells were then incubated with the original growth media with or without 50 µM compound 3c and returned to the 5% CO2 incubator at 37 °C for 24 h or 48 h for transporter internalization. Transporter trafficking was stopped by rapidly cooling the cells at 4°C. […]
(§2) FIGURE 5 Effects of compound 3c on cytotoxicity and protein expressions of ENT1 and ENT2. Cytotoxicity of compound 3c was measured after 24 h or 48 h treatment of PK15NTD/ENT1 and PK15NTD/ENT2 cells with various concentrations of compound 3c (0.5, 5 and 50 μM) or a vehicle (0.5% DMSO, as a control) (A) The cell viability and (B) cell membrane integrity were determined by the MTT assay and LDH release, respectively (C) PK15NTD/ENT1 and (D) PK15NTD/ENT2 cells were incubated with 50 μM of compound 3c or a vehicle (0.5% DMSO, as a control) for 24 or 48 h. […] After cleavage of extracellular biotin, internalized biotinylated proteins were precipitated with immobilized streptavidin beads and detected with an anti-ENT1 and anti-ENT2 antibodies by western blotting. […]

ENT2 = experiment: as above; type: cell-based, human; details: 50 µM, 24 h or 48 h, PK15NTD cells
Description: as §1, §2

## Cc1cccc(Nc2nc(N)nc(CN3CCN(c4ccc(F)cc4)CC3)n2)c1 [Compound 3c]
ENT1
  location of biotinylated ENT1 (internalization): exclusively found at the plasma membrane
ENT2
  location of biotinylated ENT2 (internalization): exclusively found at the plasma membrane
